The text below walks through data of patent publication US20240285670A1, “THERAPEUTIC TREATMENT OF TUMORS BY BLOCKING THE HEME SYNTHESIS-EXPORT AXIS” (Università degli Studi di Torino, priority 2021, published 2024).

Data set [1] deals with BTECs. The experiment in a line: TCA cycle flux in BTECs. Particulars: FLVCR1a-silenced vs scramble shRNA BTECs. The format is cell-based, human. From the text:
Results were expressed as nmol NAD*/min/mg mitochondrial protein for complex I, nmol reduced cytochrome c/min/mg mitochondrial protein for complexes II-III, nmol oxidized cytochrome c/min/mg mitochondrial protein for complex IV. Data represent mean±SEM, n=3. For statistical analyses, an unpaired Student's t-test was used; *=p<0.05, **=p<0.01, *=p<0.001. […] Results are expressed as nmol/mg mitochondrial proteins. Data represent mean±SEM, n=3. For statistical analyses, an unpaired Student's t-test was used; *=p<0.05. […] Results are expressed as pmol CO2/h/mg protein. Data represent mean±SEM, n=3. For statistical analyses, an unpaired Student's t-test was used; **=p<0.01. […] Results were expressed as nmol NAD*/min/mg mitochondrial protein for complex I, nmol reduced cytochrome c/min/mg mitochondrial protein for complexes II-III, nmol oxidized cytochrome c/min/mg mitochondrial protein for complex IV. […] Results are expressed as nmol/mg mitochondrial proteins. […] Results are expressed as pmol CO2/h/mg protein. […] (H) TCA cycle enzymes activities are reported in boxes and expressed as mU/mg mitochondrial proteins. […] Results were expressed as nmol NAD^+/min/mg mitochondrial protein for complex I, nmol reduced cytochrome c/min/mg mitochondrial protein for complexes II-III, nmol oxidized cytochrome c/min/mg mitochondrial protein for complex IV. […] Results are expressed as nmol/mg mitochondrial proteins. […]

The subject of data set [2] is BTECs. The experiment in a line: In vitro tubulogenesis assay on matrigel. Particulars: FLVCR1a-silenced vs scramble shRNA BTECs, 18 hours. In kind it is cell-based, human. From the text:
(A) BTECs counting, as a readout of cell proliferation, at the indicated time points. […] Data represent mean±SEM, n=4. For statistical analyses, a two-way analysis of variance was used, followed by the Bonferroni correction for multiple group comparisons; ***p<0.001. (B) Quantification of BTECs migration rate in wound-healing assay. […] Data represent mean±SEM, n=32. For statistical analyses, a nonparametric unpaired Mann-Whitney test was used; ***p<0.001. (C) In vitro tubulogenesis assay on matrigel. […] The number of nodes counted within the neo-formed vascular networks is shown. Data represent mean±SEM; n=10. For statistical analyses, a nonparametric unpaired Mann-Whitney test was used; **p<0.01.
To assess in vitro formation of capillary-like structures, 3.5*10^4 BTECs were seeded in 24-well plates coated with BD Matrigel Matrix Growth Factor Reduced (BD Biosciences, Franklin Lakes, NJ USA, catalog n°356230). Cell organization on Matrigel was monitored using a Nikon Eclipse T-E microscope with a Nikon Plan 10×/0.10 NA objective. […] Images obtained 18 hours after the start of the experiment were analysed using Fiji open source software (Schindelin et al., 2012) (http://fiji.sc/ RRID:SCR_002285) in order to assess the number of nodes (intersections formed by at least three detectable cells) for each field. […]

In the case of “FLVCR1a shRNA: shRNA specifically down-regulating FLVCR1a without targeting FLVCR1b; pLKO.1 lentiviral clone TRCN0000059599, antisense SEQ ID No.: 2 (antisense TTGCTAATGATGCTGTACTGG; sense CCAGTACAGCATCATTAGCAA)”, the TCA cycle flux entry in the data set with BTECs [1] is listed as “increased TCA cycle flux”. For the same substance, in the data set on BTECs [2], the “formation of microvascular network on matrigel (number of nodes)” value was “impaired ability to form a complex microvascular network on matrigel”.
